Data reported in patent US5137892A, “Quinoline, naphthyridine and pyridobenzoxazine derivatives” (Abbott Laboratories, priority 1990, dated 1992).
Values after ≈ are worked out from the molar mass of the structure shown.

Legend:
Assay in all cases: In Vitro Antibacterial Activity, agar dilution MIC
Type in all cases: cell-based
[1] = test system: Streptococcus pyogenes 2548 INDUC; conditions: S. pyogenes 2548 INDUC; BHI agar dilution, 20-24 hours; unit assumed
Procedure: (§1) The activity of the compounds of the present invention was tested against a wide variety of bacteria using standard assay procedures. Minimum inhibitory concentrations (MICs) were determined by the agar dilution method, described below, using Brain Heart Infusion agar.
(§2) Twelve petri dishes were prepared, each containing successive aqueous 2-fold dilutions of the test compounds mixed with 10 mL of sterilized Brain Heart Infusion (BHI) agar. Each plate was inoculated with 100-fold (or 10-fold, for slow-growing strains such as Micrococcus and Streptococcus) dilutions of up to 32 different microorganisms using a Steers replicator block calibrated to deliver approximately 10^4 colony forming units (CFUs). The inoculated plates were incubated at about 35°-37° C. for approximately 20-24 hours. In addition, a control plate, using BHI agar containing no test compound, was prepared and incubated at the beginning and at the end of each test. Ciprofloxacin was used as the reference antibiotic.
(§3) The MIC was defined as the lowest concentration of test compound yielding no growth (a slight haze or sparsely isolated colonies at the inoculum spot as compared to the growth control contaning no test compound.

[2] = test system: Providencia stuartii CMX 640; conditions: P. stuartii CMX 640; BHI agar dilution, 20-24 hours; unit assumed
Procedure: as §1, §2, §3

[3] = test system: Staphylococcus aureus ATCC 6538P; conditions: S. aureus ATCC 6538P; BHI agar dilution, 20-24 hours; unit assumed
Procedure: as §1, §2, §3

Staphylococcus aureus 45 = conditions: S. aureus 45; BHI agar dilution, 20-24 hours; unit assumed
Procedure: as §1, §2, §3

Escherichia coli H560 = conditions: E. coli H560; BHI agar dilution, 20-24 hours; unit assumed
Procedure: as §1, §2, §3

[4] = test system: Pseudomonas aeruginosa K799/WT; conditions: P. aeruginosa K799/WT; BHI agar dilution, 20-24 hours; unit assumed
Procedure: as §1, §2, §3

[5] = test system: Micrococcus luteus ATCC 9341; conditions: M. luteus ATCC 9341; BHI agar dilution, 20-24 hours; unit assumed
Procedure: as §1, §2, §3

Escherichia coli SS = conditions: E. coli SS; BHI agar dilution, 20-24 hours; unit assumed
Procedure: as §1, §2, §3

Escherichia coli KNK 437 = conditions: E. coli KNK 437; BHI agar dilution, 20-24 hours; unit assumed
Procedure: as §1, §2, §3

[6] = test system: Enterobacter aerogenes ATCC 13048; conditions: E. aerogenes ATCC 13048; BHI agar dilution, 20-24 hours; unit assumed
Procedure: as §1, §2, §3

Escherichia coli JUHL = conditions: E. coli JUHL; BHI agar dilution, 20-24 hours; unit assumed
Procedure: as §1, §2, §3

[7] = test system: Staphylococcus aureus 45 RAR2; conditions: S. aureus 45 RAR2; BHI agar dilution, 20-24 hours; unit assumed
Procedure: as §1, §2, §3

[8] = test system: Streptococcus agalactaciae CMX 508; conditions: S. agalactaciae CMX 508; BHI agar dilution, 20-24 hours; unit assumed
Procedure: as §1, §2, §3

[9] = test system: Micrococcus luteus ATCC 4698; conditions: M. luteus ATCC 4698; BHI agar dilution, 20-24 hours; unit assumed
Procedure: as §1, §2, §3

[10] = test system: Pseudomonas aeruginosa BMH10; conditions: P. aeruginosa BMH10; BHI agar dilution, 20-24 hours; unit assumed
Procedure: as §1, §2, §3

[11] = test system: Staphylococcus aureus A5177; conditions: S. aureus A5177; BHI agar dilution, 20-24 hours; unit assumed
Procedure: as §1, §2, §3

[12] = test system: Staphylococcus aureus NCTC 10649; conditions: S. aureus NCTC 10649; BHI agar dilution, 20-24 hours; unit assumed
Procedure: as §1, §2, §3

[13] = test system: Pseudomonas aeruginosa A5007; conditions: P. aeruginosa A5007; BHI agar dilution, 20-24 hours; unit assumed
Procedure: as §1, §2, §3

[14] = test system: Streptococcus pyogenes 930 CONST; conditions: S. pyogenes 930 CONST; BHI agar dilution, 20-24 hours; unit assumed
Procedure: as §1, §2, §3

Pseudomonas cepacia 2961 = conditions: P. cepacia 2961; BHI agar dilution, 20-24 hours; unit assumed
Procedure: as §1, §2, §3

[15] = test system: Streptococcus pyogenes EES61; conditions: S. pyogenes EES61; BHI agar dilution, 20-24 hours; unit assumed
Procedure: as §1, §2, §3

[16] = test system: Enterococcus faecium ATCC 8043; conditions: E. faecium ATCC 8043; BHI agar dilution, 20-24 hours; unit assumed
Procedure: as §1, §2, §3

[17] = test system: Streptococcus bovis A5169; conditions: S. bovis A5169; BHI agar dilution, 20-24 hours; unit assumed
Procedure: as §1, §2, §3

[18] = test system: Staphylococcus aureus 642A; conditions: S. aureus 642A; BHI agar dilution, 20-24 hours; unit assumed
Procedure: as §1, §2, §3

[19] = test system: Staphylococcus aureus CMX 553; conditions: S. aureus CMX 553; BHI agar dilution, 20-24 hours; unit assumed
Procedure: as §1, §2, §3

Escherichia coli DC-2 = conditions: E. coli DC-2; BHI agar dilution, 20-24 hours; unit assumed
Procedure: as §1, §2, §3

[20] = test system: Staphylococcus epidermidis 3519; conditions: S. epidermidis 3519; BHI agar dilution, 20-24 hours; unit assumed
Procedure: as §1, §2, §3

[21] = test system: Klebsiella pneumoniae ATCC 8045; conditions: K. pneumoniae ATCC 8045; BHI agar dilution, 20-24 hours; unit assumed
Procedure: as §1, §2, §3

Acinetobacter SP CMX 699 = conditions: BHI agar dilution, 20-24 hours, unit assumed
Procedure: as §1, §2, §3

`CN(C)CC1COC2(CCN(c3nc4c(cc3F)c(=O)c(C(=O)O)cn4-c3ccc(F)cc3F)C2)O1` (centres unmarked) [Example 445] showed an MIC values [1] of 0.2 µg/mL (≈ 0.396 µM), an MIC values [2] greater than 100 µg/mL and an MIC values [3] of 0.2 µg/mL (≈ 0.396 µM). It also gave an MIC values (Staphylococcus aureus 45) of 0.39 µg/mL (≈ 0.773 µM), an MIC values (Escherichia coli H560) of 1.56 µg/mL (≈ 3.09 µM) and an MIC values [4] of 12.5 µg/mL (≈ 24.8 µM). The MIC values [5] was 12.5 µg/mL (≈ 24.8 µM), the MIC values (Escherichia coli SS) was 0.2 µg/mL (≈ 0.396 µM) and the MIC values (Escherichia coli KNK 437) was 12.5 µg/mL (≈ 24.8 µM). For the same compound, the MIC values [6] was 3.1 µg/mL (≈ 6.15 µM), the MIC values (Escherichia coli JUHL) was 1.56 µg/mL (≈ 3.09 µM) and the MIC values [7] was 0.78 µg/mL (≈ 1.55 µM). It also gave an MIC values [8] of 1.58 µg/mL (≈ 3.13 µM), an MIC values [9] of 12.5 µg/mL (≈ 24.8 µM) and an MIC values [10] of 12.5 µg/mL (≈ 24.8 µM). The MIC values [11] was 0.39 µg/mL (≈ 0.773 µM), the MIC values [12] was 0.2 µg/mL (≈ 0.396 µM) and the MIC values [13] was 12.5 µg/mL (≈ 24.8 µM). For the same compound, the MIC values [14] was 0.78 µg/mL (≈ 1.55 µM), the MIC values (Pseudomonas cepacia 2961) was 50 µg/mL (≈ 99.1 µM) and the MIC values [15] was 0.78 µg/mL (≈ 1.55 µM). The MIC values [16] was 1.56 µg/mL (≈ 3.09 µM), the MIC values [17] was 1.56 µg/mL (≈ 3.09 µM) and the MIC values [18] was 0.39 µg/mL (≈ 0.773 µM). It also gave an MIC values [19] of 0.39 µg/mL (≈ 0.773 µM), an MIC values (Escherichia coli DC-2) of 12.5 µg/mL (≈ 24.8 µM) and an MIC values [20] of 0.39 µg/mL (≈ 0.773 µM). The MIC values [21] was 1.56 µg/mL (≈ 3.09 µM) and the MIC values (Acinetobacter SP CMX 699) was 6.2 µg/mL (≈ 12.3 µM).
